The test system of data set [1] is HBV viral load in AD38 cells. Description: Viral load production in AD38 cells, quantitative PCR of the core sequence in supernatant. Format: cell-based. The note with it: Hepatitis B virus, 144 h, 10 μM compound, 6 days at 37° C., supernatant qPCR, relative to DMSO control; read-out: AD38 Viral Load (%) (VL with cmpd/VL in DMSO control) at 10 μM. A general note: Quantitative PCR measures a nucleic acid by following its amplification.

Another data set has as its system AD38 cells. Description: Viability of AD38 cells (Promega CellTiter-Glo). Format: cell-based. The note with it: 10 μM compound, 6 days, CellTiter-Glo luminescence normalized to DMSO control (100%). The procedure, abridged: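 After 6 days of compound exposure at 37° C (compound added as 10× solution in 10% DMSO; 50,000 cells/well, collagen-coated), medium was replaced with tetracycline-free DMEM/F12, 2% FBS, 1% DMSO. CellTiter-Glo luminescence was then recorded and normalized to DMSO-treated wells as 100% viability.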
A general note: Cellular ATP, detected with luciferase, serves as a proxy for viable cell number.

These results are taken from patent US11814376B2, “Hepatitis b core protein modulators” (Assembly Biosciences, Inc., priority 2015, dated 2023).

Regarding `Cc1nc(C)c(CNC(=O)c2ccc3c(c2)NC(=O)c2ccccc2S3(=O)=O)s1` [compound 1763], the activity at 10 µM in data set [1] is 12.9%. Also, the “AD38 Viability Normalized Result (cmpd/DMSO %) at 10 μM” value in the data set with AD38 cells is given as 93%.

Consider `NC(=O)c1ccc(-c2ncc(CNC(=O)c3ccc4c(c3)NC(=O)c3ccccc3S4(=O)=O)s2)cc1` [compound 1764, N-((2-(4-carbamoylphenyl)thiazol-5-yl)methyl)-11-oxo-10, 11 dihydrodibenzo [b, f] [1, 4] thiazepine-8-carboxamide 5,5-dioxide], for which, in data set [1], the activity at 10 µM worked out at 1.1%. The “AD38 Viability Normalized Result (cmpd/DMSO %) at 10 μM” value in the data set with AD38 cells is given as 107%.

As to `Cc1c(C(=O)NCc2cnc(C(F)(F)F)s2)ccc2c1NC(=O)c1ccccc1S2` [compound 1766], in data set [1], the activity at 10 µM is 1.3%. Moreover, the “AD38 Viability Normalized Result (cmpd/DMSO %) at 10 μM” value in the data set on AD38 cells is 98%.

For the compound `Cc1c(C(=O)NCc2cnc(C(F)(F)F)s2)ccc2c1NC(=O)c1ccccc1S2(=O)=O` [compound 1767], the activity at 10 µM in data set [1] was found to be 0.5%. For the same compound, the “AD38 Viability Normalized Result (cmpd/DMSO %) at 10 μM” value in the data set on AD38 cells is on record as 94%.

Turning to `Cc1c(C(=O)NCc2cnc(-c3ccc(O)cc3)s2)ccc2c1NC(=O)c1ccccc1S2(=O)=O` [compound 1768], the activity at 10 µM in data set [1] is 0.4%. Besides, in the data set with AD38 cells, the “AD38 Viability Normalized Result (cmpd/DMSO %) at 10 μM” value is given as 94%.

For the compound `Cc1nc(C)c(CNC(=O)c2ccc3c(c2)NC(=O)c2ccccc2O3)s1` [compound 1769], the activity at 10 µM in data set [1] is 43.3%. Also, the “AD38 Viability Normalized Result (cmpd/DMSO %) at 10 μM” value in the data set with AD38 cells stood at 101%.

Take `NC(=O)c1ccc(-c2ncc(CNC(=O)c3ccc4c(c3)NC(=O)c3ccccc3O4)s2)cc1` [compound 1770, N-((2-(4-carbamoylphenyl)thiazol-5-yl)methyl)-11-oxo-10, 11-dihydrodibenzo [b, f] [1, 4] oxazepine-8-carboxamide]: the activity at 10 µM in data set [1] turned out to be 32.5%. Moreover, the “AD38 Viability Normalized Result (cmpd/DMSO %) at 10 μM” value in the data set with AD38 cells is given as 77%.

For `O=C(NCc1cnc(C(F)(F)F)s1)c1ccc2c(c1)NC(=O)c1ccccc1[S+]2[O-]` (stereo not shown) [compound 1772], the activity at 10 µM in data set [1] was found to be 7.1%. Besides, the “AD38 Viability Normalized Result (cmpd/DMSO %) at 10 μM” value in the data set on AD38 cells is recorded as 109%.

On to `Cc1cc(-c2ncc(CNC(=O)c3ccc4c(c3)NC(=O)c3ccccc3S4(=O)=O)s2)ccc1O` [compound 1804, N-((2-(4-hydroxy-3-methylphenyl)thiazol-5-yl)methyl)-11-oxo-10, 11-dihydrodibenzo [b, f] [1, 4] thiazepine-8-carboxamide 5,5-dioxide], for which the activity at 10 µM in data set [1] is 0.5%. For the same compound, the “AD38 Viability Normalized Result (cmpd/DMSO %) at 10 μM” value in the data set on AD38 cells was determined as 103%.

For the compound `O=C(NCc1cnc(-c2ccc3[nH]ncc3c2)s1)c1ccc2c(c1)NC(=O)c1ccccc1S2(=O)=O` [compound 1805], in data set [1], the activity at 10 µM is 0.6%. The “AD38 Viability Normalized Result (cmpd/DMSO %) at 10 μM” value in the data set with AD38 cells is 97%.

Consider `Cc1cc(-c2ncc(CNC(=O)c3ccc4c(c3)NC(=O)c3ccccc3S4(=O)=O)s2)cc(C)c1O` [compound 1806, N-((2-(4-hydroxy-3,5-dimethylphenyl)thiazol-5-yl)methyl)-11-oxo-10, 11-dihydrodibenzo [b, f] [1, 4] thiazepine-8-carboxamide 5,5-dioxide], for which the activity at 10 µM in data set [1] worked out at 0.8%. The “AD38 Viability Normalized Result (cmpd/DMSO %) at 10 μM” value in the data set on AD38 cells came out at 105%.

As to `N#Cc1ccc(-c2ncc(CNC(=O)c3ccc4c(c3)NC(=O)c3ccccc3S4(=O)=O)s2)c(F)c1` [compound 1814], the activity at 10 µM in data set [1] worked out at 0.9%. In addition, the “AD38 Viability Normalized Result (cmpd/DMSO %) at 10 μM” value in the data set with AD38 cells is on record as 92%.

In the case of `N#Cc1ccc(-c2ncc(CNC(=O)c3ccc4c(c3)NC(=O)c3ccccc3S4(=O)=O)s2)cc1F` [compound 1815], in data set [1], the activity at 10 µM is 0.2%. The “AD38 Viability Normalized Result (cmpd/DMSO %) at 10 μM” value in the data set on AD38 cells is on record as 88%.

Consider `N#Cc1ccc(-c2ncc(CNC(=O)c3ccc4c(c3)NC(=O)c3ccccc3S4(=O)=O)s2)c(Cl)c1` [compound 1816], for which the activity at 10 µM in data set [1] was found to be 0.2%. In the data set with AD38 cells, the “AD38 Viability Normalized Result (cmpd/DMSO %) at 10 μM” value worked out at 82%.

As for `N#Cc1ccc(-c2ncc(CNC(=O)c3ccc4c(c3)NC(=O)c3ccccc3S4(=O)=O)s2)cc1Cl` [compound 1817], in data set [1], the activity at 10 µM is 0.3%. In addition, the “AD38 Viability Normalized Result (cmpd/DMSO %) at 10 μM” value in the data set with AD38 cells is reported as 97%.

Take `O=C(NCc1cnc(-c2ccc3ncccc3c2)s1)c1ccc2c(c1)NC(=O)c1ccccc1S2(=O)=O` [compound 1819]: the activity at 10 µM in data set [1] worked out at 0.5%. Also, the “AD38 Viability Normalized Result (cmpd/DMSO %) at 10 μM” value in the data set with AD38 cells was 118%.

With `O=C(NCc1cnc(-c2ccc3cnccc3c2)s1)c1ccc2c(c1)NC(=O)c1ccccc1S2(=O)=O` [compound 1820], in data set [1], the activity at 10 µM stood at 3.2%. The “AD38 Viability Normalized Result (cmpd/DMSO %) at 10 μM” value in the data set with AD38 cells was determined as 105%.

Consider `O=C1Cc2cc(-c3ncc(CNC(=O)c4ccc5c(c4)NC(=O)c4ccccc4S5(=O)=O)s3)ccc2N1` [compound 1821], for which, in data set [1], the activity at 10 µM worked out at 0.5%. The “AD38 Viability Normalized Result (cmpd/DMSO %) at 10 μM” value in the data set on AD38 cells was found to be 102%.

Take `COc1cccc(Cc2ncc(CNC(=O)c3ccc4c(c3)NC(=O)c3ccccc3S4(=O)=O)s2)c1` [compound 1822, N-((2-(3-methoxybenzyl)thiazol-5-yl)methyl)-11-oxo-10, 11-dihydrodibenzo [b, f] [1, 4] thiazepine-8-carboxamide 5,5-dioxide]: in data set [1], the activity at 10 µM is 1.5%. Further, the “AD38 Viability Normalized Result (cmpd/DMSO %) at 10 μM” value with AD38 cells was 89%.

Turning to `O=C(NCc1cnc(Cc2ccc(O)cc2)s1)c1ccc2c(c1)NC(=O)c1ccccc1S2(=O)=O` [compound 1823, N-((2-(4-hydroxybenzyl)thiazol-5-yl)methyl)-11-oxo-10, 11-dihydrodibenzo [b, f] [1, 4] thiazepine-8-carboxamide 5,5-dioxide], the activity at 10 µM in data set [1] came out at 5.2%. For the same compound, in the data set on AD38 cells, the “AD38 Viability Normalized Result (cmpd/DMSO %) at 10 μM” value was determined as 96%.

For the compound `N#Cc1ccc(-c2ncc(CNC(=O)c3ccc4c(c3)NC(=O)c3ccccc3O4)s2)c(F)c1` [compound 1826], the activity at 10 µM in data set [1] stood at 11.8%. For the same compound, the “AD38 Viability Normalized Result (cmpd/DMSO %) at 10 μM” value in the data set with AD38 cells is listed as 91%.

As for `O=C(NCc1cnc(-c2ccc3ncccc3c2)s1)c1ccc2c(c1)NC(=O)c1ccccc1O2` [compound 1831], the activity at 10 µM in data set [1] came out at 3.8%. Also, the “AD38 Viability Normalized Result (cmpd/DMSO %) at 10 μM” value with AD38 cells was 112%.

Regarding `O=C(NCc1cnc(-c2ccc3cnccc3c2)s1)c1ccc2c(c1)NC(=O)c1ccccc1O2` [compound 1832], in data set [1], the activity at 10 µM came to 14.1%. The “AD38 Viability Normalized Result (cmpd/DMSO %) at 10 μM” value with AD38 cells came out at 98%.

On to `O=C1Cc2cc(-c3ncc(CNC(=O)c4ccc5c(c4)NC(=O)c4ccccc4O5)s3)ccc2N1` [compound 1833], for which the activity at 10 µM in data set [1] stood at 67.4%. Besides, the “AD38 Viability Normalized Result (cmpd/DMSO %) at 10 μM” value with AD38 cells was 102%.

For `O=C(NCc1cnc(Cc2ccc(O)cc2)s1)c1ccc2c(c1)NC(=O)c1ccccc1O2` [compound 1835, N-((2-(4-hydroxybenzyl)thiazol-5-yl)methyl)-11-oxo-10, 11-dihydrodibenzo [b, f] [1, 4] oxazepine-8-carboxamide], the activity at 10 µM in data set [1] was found to be 12.3%. Moreover, the “AD38 Viability Normalized Result (cmpd/DMSO %) at 10 μM” value in the data set with AD38 cells is given as 94%.

With `O=C(NCc1cnc(-c2ccccc2CO)s1)c1ccc2c(c1)NC(=O)c1ccccc1S2(=O)=O` [compound 1838], the activity at 10 µM in data set [1] came to 1.4%. In the data set with AD38 cells, the “AD38 Viability Normalized Result (cmpd/DMSO %) at 10 μM” value was determined as 113%.

Take `O=C(NCc1cnc(-c2ccccc2CCO)s1)c1ccc2c(c1)NC(=O)c1ccccc1S2(=O)=O` [compound 1839, N-((2-(2-(2-hydroxyethyl)phenyl)thiazol-5-yl)methyl)-11-oxo-10, 11-dihydrodibenzo [b, f] [1, 4] thiazepine-8-carboxamide 5,5-dioxide]: the activity at 10 µM in data set [1] is 6.6%. In the data set with AD38 cells, the “AD38 Viability Normalized Result (cmpd/DMSO %) at 10 μM” value was found to be 96%.

Take `CC(C)(O)Cc1ccccc1-c1ncc(CNC(=O)c2ccc3c(c2)NC(=O)c2ccccc2S3(=O)=O)s1` [compound 1840]: the activity at 10 µM in data set [1] was 3.2%. The “AD38 Viability Normalized Result (cmpd/DMSO %) at 10 μM” value in the data set with AD38 cells worked out at 107%.

`Cl.NCc1ccccc1-c1ncc(CNC(=O)c2ccc3c(c2)NC(=O)c2ccccc2S3(=O)=O)s1` [compound 1841, N-((2-(2-(aminomethyl)phenyl)thiazol-5-yl)methyl)-11-oxo-10, 11-dihydrodibenzo [b, f] [1, 4] thiazepine-8-carboxamide 5,5-dioxide hydrochloride]: the activity at 10 µM in data set [1] worked out at 9.1%. Also, the “AD38 Viability Normalized Result (cmpd/DMSO %) at 10 μM” value in the data set on AD38 cells came to 104%.

For the compound `Cl.NCCc1ccccc1-c1ncc(CNC(=O)c2ccc3c(c2)NC(=O)c2ccccc2S3(=O)=O)s1` [compound 1842, N-((2-(2-(2-aminoethyl)phenyl)thiazol-5-yl)methyl)-11-oxo-10, 11-dihydrodibenzo [b, f] [1, 4] thiazepine-8-carboxamide 5,5-dioxide hydrochloride], in data set [1], the activity at 10 µM is 46.5%. The “AD38 Viability Normalized Result (cmpd/DMSO %) at 10 μM” value in the data set on AD38 cells is given as 109%.

`CS(=O)(=O)c1ccc(-c2ncc(CNC(=O)c3ccc4c(c3)NC(=O)c3ccccc3S4(=O)=O)s2)cc1` [compound 1855]: the activity at 10 µM in data set [1] came out at 2.5%. The “AD38 Viability Normalized Result (cmpd/DMSO %) at 10 μM” value in the data set with AD38 cells was determined as 102%.

`NS(=O)(=O)c1ccc(-c2ncc(CNC(=O)c3ccc4c(c3)NC(=O)c3ccccc3S4(=O)=O)s2)cc1` [compound 1856]: the activity at 10 µM in data set [1] amounted to 1.3%. For the same compound, in the data set with AD38 cells, the “AD38 Viability Normalized Result (cmpd/DMSO %) at 10 μM” value stood at 96%.

As to `CS(=O)(=O)Nc1ccc(-c2ncc(CNC(=O)c3ccc4c(c3)NC(=O)c3ccccc3S4(=O)=O)s2)cc1` [compound 1857], the activity at 10 µM in data set [1] was 1.5%. Further, the “AD38 Viability Normalized Result (cmpd/DMSO %) at 10 μM” value in the data set with AD38 cells came to 107%.

Take `O=C(NCc1cnc(-c2ccc(N3CCCC3=O)cc2)s1)c1ccc2c(c1)NC(=O)c1ccccc1S2(=O)=O` [compound 1858]: the activity at 10 µM in data set [1] is 0.7%. In the data set on AD38 cells, the “AD38 Viability Normalized Result (cmpd/DMSO %) at 10 μM” value is recorded as 103%.

Regarding `O=C(NCc1cnc(N2CCC(O)CC2)s1)c1ccc2c(c1)NC(=O)c1ccccc1S2(=O)=O` [compound 1859], the activity at 10 µM in data set [1] was determined as 2.7%. For the same compound, in the data set with AD38 cells, the “AD38 Viability Normalized Result (cmpd/DMSO %) at 10 μM” value is given as 89%.
